Target: 3',5'-cyclic-AMP phosphodiesterase 4B (Homo sapiens, UniProt Q07343)
Assay: Inhibition In Vitro Assay: PDE4A, PDE4B, PDE4C, PDE4D, and PDE5 human recombinant proteins are expressed and purified from Saccharomyes cerevisiae that lack endogenous PDEs. The phosphodiesterase enzymes are diluted on ice with enzyme dilution buffer (25 mM Tris, pH 7.5, 0.1 mM DTT, 5.0 mM MgCl2, 100 mM NaCl, 5 μM ZnSO4, 100 μg/mL BSA) to give approximately 20%-40% hydrolysis of cyclic nucleotide monophosphate (cNMP) in the absence of inhibitor. The stock solution of test compounds are diluted on the Beckman BioMek™ 1000 workstation to span a concentration range of 4.5 log units in 0.5 log increments. The DMSO concentration in the final test system is 2.5% for all PDE enzymes. The final test compound concentration tested ranged from 0.03 nM to 1 μM. The assay is performed in a 96-well microtiter plate format on a Beckman BioMek™ 1000 robotic station. Each row of the plate represents a 10-point dose response curve containing blank (no enzyme), non-inhibited control, and inhibitor dilutions spanning 4.5 log units in concentration in 0.5 log increments. Assay stock solutions are loaded into the Biomek™ reservoirs (water, inhibitor diluent [2.5% or 10% DMSO], 5× PDE assay buffer, substrate, inhibitor solutions, enzyme solutions, snake venom nucleotidase, and charcoal suspension). The reaction is initiated with enzyme, and incubated for 15 minutes at 30° C. […]

Chain of 3',5'-cyclic-AMP phosphodiesterase 4B (Q07343 whole entry): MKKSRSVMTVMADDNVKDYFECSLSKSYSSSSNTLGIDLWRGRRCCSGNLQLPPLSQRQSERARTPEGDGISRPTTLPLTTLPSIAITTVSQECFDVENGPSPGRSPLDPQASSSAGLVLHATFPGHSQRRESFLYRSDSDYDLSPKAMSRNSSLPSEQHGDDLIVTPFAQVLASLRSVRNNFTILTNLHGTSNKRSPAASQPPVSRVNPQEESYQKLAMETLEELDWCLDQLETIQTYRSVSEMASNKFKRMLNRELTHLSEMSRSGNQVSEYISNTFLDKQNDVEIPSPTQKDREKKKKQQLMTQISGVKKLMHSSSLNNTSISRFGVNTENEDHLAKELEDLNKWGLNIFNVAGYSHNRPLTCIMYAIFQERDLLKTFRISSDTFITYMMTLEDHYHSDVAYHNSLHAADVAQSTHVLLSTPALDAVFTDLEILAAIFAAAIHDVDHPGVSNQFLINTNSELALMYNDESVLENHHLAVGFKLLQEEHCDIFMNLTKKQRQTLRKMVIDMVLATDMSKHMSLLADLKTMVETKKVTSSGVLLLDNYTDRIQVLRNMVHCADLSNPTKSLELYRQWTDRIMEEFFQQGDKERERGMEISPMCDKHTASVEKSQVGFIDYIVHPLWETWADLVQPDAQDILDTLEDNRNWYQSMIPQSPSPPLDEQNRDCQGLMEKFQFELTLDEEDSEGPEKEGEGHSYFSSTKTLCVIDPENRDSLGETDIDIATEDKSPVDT

With `COc1ccc([C@@H]2CN(C(=O)[C@@H](O)CO)C[C@@]2(C)[C@@H](C)O)cc1OC1CN(c2cnccn2)C1` the IC50 was 14 nM.

From ChEMBL document CHEMBL5727973, “Azetidinyloxyphenylpyrrolidine compounds” (2020)
